In data set [1] the target is T1, synthetic peptide, Aβ (10-43) (Homo sapiens, UniProt P05067).
T1 construct: The 10-43 amino acid fragment of Aβ was synthesized; made in house; host or cells: chemical (FMOC) peptide synthesis, no expression host
In words: Inhibition of [14C]Chrysamine G binding to Aβ (10-43). The conditions noted are these: for binding affinity in words: inhibition of [14C]Chrysamine G binding to Aβ (10-43), compared with Chrysamine G. The protocol:
Binding assays were performed in 12×75 mm borosilicate glass tubes. […] To the above solution, 25 μl of a 0.36 mg/ml suspension of Aβ (10-43) in H2O was added and 10% ethanol was added to bring the volume to 950 μl. […] The binding mixture was incubated for 30 min at room temperature.
Ki is defined as IC50/(1+[L]/KD ), where [L] is the concentration of [^14C]

Data set [2] is described as follows: Octanol/water partitioning. Format: physicochemical. The following applies: 1-octanol / phosphate buffered saline pH 7.4.
Method: The mixture was then centrifuged at 1,000 g to facilitate the formation of two clear phases. […] Concentrations were determined after correction for the molar absorptivity differences in the two solvents and the partition coefficient expressed as the concentration in the octanol layer divided by the concentration in the aqueous layer. Experiments were done in triplicate.
For data set [3], the system named is rat pheochromocytoma (PC-12) cells. The following applies: previously reported; cited from earlier work.
For data set [4] the following is noted: guinea pigs; cited from earlier work.
Data set [5] deals with rat pheochromocytoma (PC-12) cells. The conditions noted are these: PC-12 cells, MTT reduction (FIG. 14). The protocol: Rat pheochromocytoma cells (PC-12) were grown in RPMI 1640 media with 10% fetal bovine serum. Approximately 5,000 exponentially growing cells were plated in 96-well plates in a volume of 100 μl of media and allowed to incubate at 37° C. overnight. […] The cells were incubated for 24 hrs prior to the addition of 13.3 μl of 5 mg/ml MTT (3,(4,5-dimethylthiazol-2-yl)2,5-diphenyltetrazolium bromide) in sterile phosphate buffered saline. After 4.5 hrs at 37° C., 100 μl of extraction buffer (20% w/v SDS in 50% DMF/water; pH adjusted to 4.7 with 2.5% of 80% acetic acid and 2.5% 1N HCl) was added and the plates were incubated overnight. Hansen et al., J. Immunol. Methods 119: 203 (1989). Color development was then measured at 560 nm. Maximum viability was defined as the absorbance of control wells to which only the 20 μl of distilled, deionized H2O was added. Maximum toxicity was defined by wells in which the cells were lysed by addition of 0.1% (final concentration) of Triton X-100.

The mark [6] stands for this setting: Ki for inhibition of [14C]Chrysamine G binding to Aβ (10-43), Ki=IC50/(1+[L]/KD), KD 0.26 μM.

Values joined by “and” are separate entries in the source; they are usually repeats but may differ in a detail not shown here. Identical values can stand only once. Like-named read-outs stand apart in the source and are kept apart here.

T1 sequence (P05067 681-714): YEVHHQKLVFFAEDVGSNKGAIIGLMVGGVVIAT

As for `O=C(O)c1cc(N=Nc2ccc(-c3ccc(N=Nc4ccc(O)c(C(=O)O)c4)cc3S(=O)(=O)O)c(S(=O)(=O)O)c2)ccc1O` [2,2′-(SO3)2CG], in data set [1], the “binding affinity in words” value was “inactivity”.
For `O=C(O)c1cc(N=Nc2ccc(-c3ccc(N=Nc4ccc(O)c(C(=O)O)c4)c(C(=O)O)c3)cc2C(=O)O)ccc1O` [3,3′-(COOH)2CG], the “decrease in affinity / loss of activity relative to Chrysamine G” value in data set [1] amounted to 7 fold.
With `O=C(O)c1cc(N=Nc2ccc(-c3ccc(N=Nc4ccc(O)c(C(=O)O)c4)c(Br)c3)cc2Br)ccc1O` [3,3′-Br2CG], in data set [1], the “binding affinity in words” value is on record as “about half that of Chrysamine G”.
In the case of `O=C(O)c1cc(N=Nc2ccc(-c3ccc(N=Nc4ccc(O)c(C(=O)O)c4)c(Cl)c3)cc2Cl)ccc1O` [3,3′-Cl2CG], the “binding affinity in words” value in data set [1] is reported as “about half that of Chrysamine G”.
With `O=C(O)c1cc(N=Nc2ccc(-c3ccc(N=Nc4ccc(O)c(C(=O)O)c4)c(I)c3)cc2I)ccc1O` [3,3′-I2CG], the octanol/water partition coefficient in data set [2] is 112.9±7.3. For the same compound, in data set [1], the “binding affinity in words” value is on record as “about half that of Chrysamine G”.
In data set [1] (setting [6]), `O=C(O)c1cc(F)cc(N=Nc2ccc(-c3ccc(N=Nc4cc(F)cc(C(=O)O)c4O)cc3)cc2)c1O` [(5-FSA)CG, 4,4′-bis(2-hydroxy-3-carboxy-5-fluorophenylazo)-biphenyl] yielded a Ki of 1.16 ± 0.19 µM. The “binding affinity in words” value in data set [1] is “one-third as potent as Chrysamine G”.
Take `COC(=O)c1cc(N=Nc2ccc(-c3ccc(N=Nc4ccc(O)c(C(=O)OC)c4)cc3)cc2)ccc1O` [CG(COOMe)2, 4,4′-bis(3-methoxycarbonyl-4-hydroxyphenylazo)-biphenyl]: the “decrease in affinity / loss of activity relative to Chrysamine G” value in data set [1] was “about 200 fold”.
In the case of `Nc1c(/N=N/c2ccc(-c3ccc(/N=N/c4cc(S(=O)(=O)O)c5ccccc5c4N)cc3)cc2)cc(S(=O)(=O)O)c2ccccc12` [Congo red, reference compound], in data set [2], the octanol/water partition coefficient is on record as 0.665±0.037. The Ki in data set [1] (setting [6]) was 2.82 µM and 2.8 µM. In addition, in data set [3], the “concentration achieving complete protection” value was 20 µM and the “concentrations protecting against Aβ-induced toxicity” value is given as “over 2 μM”. In addition, the brain/kidney ratio result in data set [4] is given as “approximately 0.07”.
Regarding `O=C(O)c1cc(N=Nc2ccccc2)ccc1O` [aniline derivative], in data set [1], the energy of binding came out at 5.5 kcal/mol. Also, the Ki in data set [1] (read-out: Ki for inhibition of [14C]Chrysamine G binding to Aβ (10-43)) was 73 µM.
In the case of `Oc1ccc(N=Nc2ccc(-c3ccc(N=Nc4ccc(O)cc4)cc3)cc2)cc1` [phenol derivative], the “binding affinity in words” value in data set [1] was “completely destroyed binding affinity”. Also, in data set [5], the “effect on toxicity induced by 1 μM Aβ (25-35)” value was “no protective effects”.
As to `O=C(O)c1ccccc1O` [salicylic acid, reference compound], the “binding affinity in words” value in data set [1] is reported as “total lack of binding activity”.
With `Cc1cc(-c2cc(C)c(N=Nc3ccc(O)c(C(=O)O)c3)c(C)c2)cc(C)c1N=Nc1ccc(O)c(C(=O)O)c1` [tetramethyl analog of Chrysamine G, 4,4′-bis(3-carboxy-4-hydroxyphenylazo)-3,3′,5,5′-tetramethylbiphenyl], the affinity in data set [1] (setting [6]) corresponds to a Ki of 0.75 ± 0.09 µM. In addition, the “binding affinity in words” value in data set [1] is given as “about twice that of Chrysamine G”.

(Values after patent publication US6417178B1, “Amyloid binding nitrogen-linked compounds for the antemortem diagnosis of alzheimer's disease, in vivo imaging and prevention of amyloid deposits” (University of Pittsburgh, priority 1994, dated 2002).)
